Reference: patent US20210154281A1, “CELL-BASED CANCER VACCINES AND CANCER THERAPIES” (Massachusetts Institute of Technology, priority 2019, published 2021)

Key:
B16-Ova tumors [1] = test: Immunophenotyping of intra-tumoral DC by flow cytometry; type: in vivo, mice; details: combined with checkpoint blockade; after 2 doses of vaccine or etoposide and 3 doses of checkpoint blockade
Experimental: Phenotypic characterization of immune cell populations was performed by flow cytometry. Briefly, tumors were harvested and mashed through a […] filter. Collected cells were washed in FACS buffer (PBS containing 5 mM EDTA and 1% BSA), resuspended, and counted. Five million cells from each sample were stained with fluorophore-conjugated antibodies on ice for 30 min, co-stained with Aqua, washed, resuspended in 450 μl, supplemented with 50 μl of CountBright absolute counting beads, and analyzed on a BD LSR Fortessa flow cytometer. DCs were scored as CD45+Ly6CCD24+MHCII+F480−(CD11b+ or CD103+) cells using the gating strategy described in Broz M L, et al., Cancer Cell, 8; 26(6):938 (2014).
To test whether the efficacy of the tumor cell vaccine and checkpoint combination treatment for an anti-tumor immune response depends on DCs that can cross-present tumor antigens, the numbers of CD11b^+C103^−DC2 cells and CD11b^−CD103^+DC1 cells were enumerated by immunophenotyping and flow cytometry. […] As before, mice bearing flank B16-Ova tumors were treated with saline or the tumor cell vaccine intra-tumorally, in the presence or absence of systemic checkpoint blockade (FIG. 5A), and analyzed. […]

B16-Ova cells = test: Calreticulin surface exposure by flow cytometry; details: for CALR (%): 24 hours after treatment, representative experiment; for level of externalized calreticulin: 24 hours of drug exposure
p38MAPK = test: Western blotting of cell lysates with anti-phospho-p38 antibody; type: cell-based, mouse; details: B16-Ova cells
BMDCs = test: Viability of BMDCs upon exposure to etoposide
B16-Ova tumors [2] = test: Flank B16-Ova tumors in mice: tumor size, survival, re-challenge; type: in vivo, C57BL/6J WT mice; details: intratumoral injection alone, three weekly doses
Experimental: Cross-sectional area of tumors was measured in mm^2 using calipers every 2-3 days. In tumor re-challenge experiments, naive mice controls or mice who had complete tumor regression and remained tumor free for at least 60 days were subcutaneously injected in the left flank (contra-lateral to the initial tumor) with 0.1×10^6 B16-Ova cells, and tumor development was monitored for another 60 days.

B16-Ova tumors [3] = test: Circulating H2-Kb/[…]-tetramer positive CD8+ T-cells in mice bearing B16-Ova tumors; type: in vivo, C57BL/6J WT mice; details: bled after the second intra-tumoral dose
Experimental: Briefly, 50 μl of whole blood was collected by retro-orbital bleeding, centrifuged at 250×g for 5 min, followed by 3 rounds of RBC lysis in 200 ul of ACK buffer. Cells were then washed once in Tetramer stain buffer (PBS containing 5 mM EDTA, 1% BSA and 50 nM Dasatinib), and stained with PE-conjugated Tetramer for 40 min at RT, followed by co-staining with anti-CD8 for 10 min at 4° C. Cells were then stained with DAPI, washed and re-suspended in tetramer stain buffer for flow cytometry analysis.

Structure (SMILES)	number of CD103+DC1 in tumors (B16-Ova tumors [1])	CALR (%) (B16-Ova cells; 10 uM)	CALR (%) (B16-Ova cells; 50 uM)	level of externalized calreticulin (B16-Ova cells)	p38MAPK activation (p38MAPK)	viability of BMDCs (BMDCs)	tumor growth (B16-Ova tumors [2])	H2-Kb-SIINFEKL (SEQ ID NO: 1)-specific T-cells (%) MEAN (B16-Ova tumors [3]) [%]
COc1cc([C@@H]2c3cc4c(cc3[C@@H](O[C@@H]3O[C@@H]5CO[C@@H](C)O[C@H]5[C@H](O)[C@H]3O)[C@H]3COC(=O)[C@H]23)OCO4)cc(OC)c1O [Etop, etoposide]	did not enhance numbers of CD103+DC1	9.69	9.69	intermediate levels of calreticulin exposure	p38MAPK activation	significantly reduced	no effect on tumor growth	0.29
O=C1c2c(O)ccc(O)c2C(=O)c2c(NCCNCCO)ccc(NCCNCCO)c21 [Mito, mitoxantrone]		17.10	4.15	highest level of externalized calreticulin	p38MAPK activation			
